{
  "source": "paper PMC4879574",
  "about": "“Identification of Leishmania donovani Topoisomerase 1 inhibitors via intuitive scaffold hopping and bioisosteric modification of known Top 1 inhibitors” (Scientific Reports, 2016)",
  "key": {"[1]": {"test_system": "L. donovani AG83 promastigotes", "test": "MTT assay on extracellular promastigotes", "type": "cell-based", "details": "Leishmania donovani, 12 h, read-out: Anti-promastigote activity IC50", "procedure": "Next, compound 4 was screened against extracellular promastigotes.\nL. donovani AG83 promastigotes (3.0 × 10^6 cells/ml) are incubated with different concentrations of drugs/compounds under study (1, 2, 5, 10 and 20 μM) for 12 h, following which the survival percentage is estimated by MTT assay. Yellow MTT (3-(4,5-dimethylthiazol- 2-yl)-2,5-diphenyltetrazolium bromide, a tetrazole) is reduced to purple formazan in the mitochondria of living cells. The formazan is then solubilized, and the concentration is determined by optical density at 570 nm. Metabolically active cells convert MTT to formazan, thereby generating a quantitative measure of viability and cytotoxicity. Percentage of viable promastigotes in each treatment groups are determined with respect to untreated control cells."}, "[2]": {"target": "T1, Human Top1 (HTop1) (Homo sapiens, UniProt P11387)", "T1 construct": "made in house; host or cells: Sf-9 insect cells infected with recombinant baculovirus (gift from Prof. J. J. Champoux)", "T1 sequence (P11387 1-765)": "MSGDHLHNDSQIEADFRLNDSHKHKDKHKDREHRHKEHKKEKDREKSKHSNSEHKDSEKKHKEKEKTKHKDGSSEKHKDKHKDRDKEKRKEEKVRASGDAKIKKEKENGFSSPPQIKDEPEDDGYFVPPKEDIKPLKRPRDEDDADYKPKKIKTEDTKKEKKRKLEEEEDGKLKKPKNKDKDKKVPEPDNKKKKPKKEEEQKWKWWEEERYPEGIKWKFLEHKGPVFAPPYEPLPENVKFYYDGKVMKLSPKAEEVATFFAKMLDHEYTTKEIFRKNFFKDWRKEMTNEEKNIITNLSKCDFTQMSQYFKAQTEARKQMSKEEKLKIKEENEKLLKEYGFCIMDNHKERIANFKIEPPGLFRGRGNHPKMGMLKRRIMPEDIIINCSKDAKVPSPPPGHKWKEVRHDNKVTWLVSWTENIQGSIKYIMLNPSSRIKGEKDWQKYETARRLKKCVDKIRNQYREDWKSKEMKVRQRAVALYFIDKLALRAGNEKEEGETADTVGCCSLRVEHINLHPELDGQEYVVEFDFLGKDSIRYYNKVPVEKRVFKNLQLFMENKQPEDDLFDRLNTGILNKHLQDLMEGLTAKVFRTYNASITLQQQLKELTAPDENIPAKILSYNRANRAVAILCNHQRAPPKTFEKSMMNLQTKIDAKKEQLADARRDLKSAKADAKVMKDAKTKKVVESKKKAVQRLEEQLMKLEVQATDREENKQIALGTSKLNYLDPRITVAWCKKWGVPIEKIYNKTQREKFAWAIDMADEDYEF", "test": "Plasmid DNA relaxation assay, HTop1", "type": "biochemical", "details": "averages of three experiments, read-out: HTop1 inhibition (EC50)", "procedure": "To investigate the inhibitory effect of our library compounds on the DNA relaxation activity of the recombinant Human and Leishmania topoisomerase 1 (Table 2), assays were performed involving supercoiled plasmid DNA, the enzymes (HTop1 and LdTop1) and our molecules. The enzymes were purified by the standard literature procedure.\nThe type I DNA topoisomerase are assayed by decreased mobility of the relaxed isomers of supercoiled pBS (SK^+) [pBlue-script (SK^+)] DNA in agarose gel. The relaxation assay was carried out as described previously with LdTop1B and HTop I, diluted in the relaxation buffer (25 mM Tris–HCl, pH 7.5, 5% glycerol, 0.5 mM DTT, 10 mM MgCl2, 50 mM KCl, […] and […] BSA) and supercoiled plasmid pBS (SK^+) DNA (85–95% were negatively supercoiled, with remainder being nicked circles)[9][28][29]. The reconstituted enzyme LdTop1B was assayed at 50 mM KCl concentration as described before. For all kinetic studies, the reaction mixtures containing the buffer and DNA were heated to 37 °C before addition of the enzymes. The reactions were rapidly quenched using stop solution and kept on ice. The gels were stained with ethidium bromide (EtBr) ([…]) and the amount of supercoiled monomer DNA band fluorescence were quantified by integration using Gel Doc 2000 under UV illumination (Bio-Rad Quantity One Software), as described previously.\nThe wild-type HTop1 (91 kDa) was purified from Sf-9 insect cells infected with the recombinant baculovirus (a kind gift from Prof. J. J. Champoux). Approximately, 1 * 10^9 Sf-9 cells were infected with the recombinant virus, and cells were harvested after 48-h of infection. The cells were lysed and enzyme was purified as described. Briefly, at 48 h post-infection, approximately 3 * 10^9 Sf-9 cells were harvested by centrifugation for 5 min at 400 * g. The cells were resuspended in 1 liter of ice-cold phosphate-buffered saline and centrifuged for 5 min at 400 * g. The nuclei were washed twice in 80 ml of lysis buffer minus Triton X-100 and resuspended in 40 ml of resuspension buffer (50 mM KCl, 10 mM Tris-Cl, pH 7.5, 2 mM MgCl2, 25 mM DTT, 0.4 mg/ml phenylmethylsulfonyl fluoride, 0.12 mg/ml aprotinin). The nuclear extract was stirred for 5 min at ~200 rpm. With continued stirring, 50 ml of polyethylene glycol (PEG) buffer (18% PEG 8000, 1 M NaCl, 10% glycerol) was added dropwise in order to precipitate the DNA. The PEG precipitate was pelleted by centrifugation and the resulting PEG supernatant was dialyzed against 4 liters of potassium phosphate buffer. The dialyzed PEG supernatant passed over a 10-ml bed volume of phosphocellulose (Whatman P11) equilibrated with PPB. The HTop1 flowed through the PS column and then passed over a Mono Q column followed by loaded onto a Mono S column. The Mono S column was eluted with a 25-ml 50–200 mM KPO4, pH 7.4, gradient. […] The peak Mono S fractions were pooled, concentrated with an Amicon ultrafiltration cell, dialyzed into storage buffer (50% glycerol, 10 mM Tris-hydrochloride, pH 7.5, 1 mM DTT, 1 mM EDTA), and stored at −20 °C."}},
  "data": [
    {"smiles": "Cc1cc2c(c(=O)[nH]1)C(=O)O/C2=C\\c1ccc(O)c(O)c1", "note": "[Compound 4]", "values": [
      {"measurement": "IC50", "setting": "[1]", "result": "4.21 ± 0.21", "unit": "µM"},
      {"measurement": "EC50", "setting": "[2]", "result": "> 100", "unit": "µM"}
    ]}
  ]
}
